# Article PMC7844276, “Multi-functionality of a tryptophan residue conserved in substrate-binding groove of GH19 chitinases” (Scientific Reports, 2021)
# Experiments:
# Assay type in all cases: binding
# [1] = molecular target: T1, BcChi-A (Gemmabryum coronatum, UniProt A9ZSX9, E84Q/W126F); assay: 1H-15N HSQC NMR titration, Asn20 bound-state intensity (slow exchange); details: 50 mM sodium acetate pH 5.0, 90% H2O/10% D2O, 300 K; 0.2 mM 15N protein; catalytically inactive mutant
# T1 construct: gene bcchiA; recombinant, pET-22b in E. coli BL21(DE3); purified from cell lysate by acid treatment, Q-Sepharose, Sephacryl S-100; no tag mentioned; 15N-labelled for NMR; catalytic domain, loopless GH19
# Text: (§1) 1H-15N HSQC NMR titration, Asn20 bound-state intensity (slow exchange) on BcChi-A
# [2] = molecular target: T2, BcChi-A (Gemmabryum coronatum, UniProt A9ZSX9, E84Q/W126A); assay: as above; details: 50 mM sodium acetate pH 5.0, 90% H2O/10% D2O, 300 K; 0.2 mM 15N protein; catalytically inactive mutant
# T2 construct: gene bcchiA; recombinant, pET-22b in E. coli BL21(DE3); purified from cell lysate by acid treatment, Q-Sepharose, Sephacryl S-100; no tag mentioned; 15N-labelled for NMR; catalytic domain, loopless GH19
# Text: as §1
# [3] = molecular target: T3, BcChi-A (Gemmabryum coronatum, UniProt A9ZSX9, E84Q); assay: as above; details: 50 mM sodium acetate pH 5.0, 90% H2O/10% D2O, 300 K; 0.2 mM 15N protein; catalytically inactive mutant
# T3 construct: gene bcchiA; recombinant, pET-22b in E. coli BL21(DE3); purified from cell lysate by acid treatment, Q-Sepharose, Sephacryl S-100; no tag mentioned; 15N-labelled for NMR; catalytic domain, loopless GH19
# Text: as §1
# [4] = molecular target: T4, BcChi-A (Gemmabryum coronatum, UniProt A9ZSX9, W126F); assay: 1H-15N HSQC NMR titration, Asn20 chemical shift; details: 50 mM sodium acetate pH 5.0, 90% H2O/10% D2O, 300 K; 0.2 mM 15N protein
# T4 construct: gene bcchiA; recombinant, pET-22b in E. coli BL21(DE3); purified from cell lysate by acid treatment, Q-Sepharose, Sephacryl S-100; no tag mentioned; 15N-labelled for NMR; catalytic domain, loopless GH19
# Text: (§2) 1H-15N HSQC NMR titration, Asn20 chemical shift on BcChi-A
# [5] = molecular target: T5, BcChi-A (Gemmabryum coronatum, UniProt A9ZSX9, W126A); assay: 1H-15N HSQC NMR titration, Asn20 chemical shift; details: 50 mM sodium acetate pH 5.0, 90% H2O/10% D2O, 300 K; 0.2 mM 15N protein
# T5 construct: gene bcchiA; recombinant, pET-22b in E. coli BL21(DE3); purified from cell lysate by acid treatment, Q-Sepharose, Sephacryl S-100; no tag mentioned; 15N-labelled for NMR; catalytic domain, loopless GH19
# Text: as §2
# [6] = molecular target: T6, BcChi-A (Gemmabryum coronatum, UniProt A9ZSX9); assay: 1H-15N HSQC NMR titration, Asn20 chemical shift; details: 50 mM sodium acetate pH 5.0, 90% H2O/10% D2O, 300 K; 0.2 mM 15N protein
# T6 construct: gene bcchiA; recombinant, pET-22b in E. coli BL21(DE3); purified from cell lysate by acid treatment, Q-Sepharose, Sephacryl S-100; no tag mentioned; 15N-labelled for NMR; catalytic domain, loopless GH19
# Text: as §2
# T6 sequence (A9ZSX9 entry or part of it): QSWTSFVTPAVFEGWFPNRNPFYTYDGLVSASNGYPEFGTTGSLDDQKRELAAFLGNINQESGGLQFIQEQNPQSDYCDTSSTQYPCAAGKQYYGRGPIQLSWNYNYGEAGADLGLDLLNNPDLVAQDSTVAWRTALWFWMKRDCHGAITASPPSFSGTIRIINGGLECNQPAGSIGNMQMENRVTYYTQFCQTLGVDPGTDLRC
# T2 sequence (A9ZSX9 entry or part of it E84Q/W126A): as the sequence (A9ZSX9 entry or part of it) above, with E61Q, W103A counted along it
# T5 sequence (A9ZSX9 entry or part of it W126A): as the sequence (A9ZSX9 entry or part of it) above, with W103A counted along it
# T4 sequence (A9ZSX9 entry or part of it W126F): as the sequence (A9ZSX9 entry or part of it) above, with W103F counted along it
# T1 sequence (A9ZSX9 entry or part of it E84Q/W126F): as the sequence (A9ZSX9 entry or part of it) above, with E61Q, W103F counted along it
# T3 sequence (A9ZSX9 entry or part of it E84Q): as the sequence (A9ZSX9 entry or part of it) above, with E61Q counted along it
Kd [1],Kd [2],Kd [3],Kd [4],Kd [5],Kd [6],SMILES
1000 µM,200 µM,14 µM,,,,CC(=O)N[C@H]1[C@H](O[C@H]2[C@H](O)[C@@H](NC(C)=O)[C@H](O[C@H]3[C@H](O)[C@@H](NC(C)=O)C(O)O[C@@H]3CO)O[C@@H]2CO)O[C@H](CO)[C@@H](O[C@@H]2O[C@H](CO)[C@@H](O[C@@H]3O[C@H](CO)[C@@H](O[C@@H]4O[C@H](CO)[C@@H](O)[C@H](O)[C@H]4NC(C)=O)[C@H](O)[C@H]3NC(C)=O)[C@H](O)[C@H]2NC(C)=O)[C@@H]1O (stereo partly drawn) [(GlcNAc)6]
,,,22000 µM,24000 µM,4200 µM,CC(=O)N[C@H]1[C@H](O[C@H]2[C@H](O)[C@@H](NC(C)=O)C(O)O[C@@H]2CO)O[C@H](CO)[C@@H](O)[C@@H]1O (stereo partly drawn) [(GlcNAc)2]
